Test results as given in PubChem BioAssay (NCI).
Where “and” joins values, the source holds several entries; their conditions need not be identical. Identical values can stand only once.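 The compound was tested at five concentrations on cells cultured in 96-well plates, with a 48-hour exposure period. GI50 marks 50% less growth. TGI is the concentration that stops growth completely.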 Calls of active or inactive are those of the source. Rule as the data show it: active = GI50 below about 0.43 µM; inactive = the rest.

Experiments:
Experiment in all cases: NCI tumour cell line growth inhibition, 48 h
[1] = tested on: MDA-N
[2] = tested on: RXF-631 renal
[3] = tested on: P388 leukemia
[4] = tested on: P388/ADR leukemia
[5] = tested on: SN12K1 renal

| SMILES | TGI [1] | TGI [2] [µM] | also measured |
| --- | --- | --- | --- |
| COC(=O)/C=C/c1cc2c(cc1-c1c(C(=O)O)cc(OC)c(OC)c1OC)OCO2 | > 10 µM | – | – |
| O=Cc1c(O)c(C(=O)Nc2ccc3[nH]c(=O)[nH]c3c2)cc2ccccc12 | – | > 100 | – |
| CC1(C)C2C=CC1C(=O)CC2 (stereo unspecified) | – | > 100 | – |
| O=C(O)C1CC(O)CN1 (stereo unspecified) | > 100 µM | – | – |
| Cc1cc(C)cc(NC(N)=S)c1 | – | > 100 | – |
| Cc1cc(Cl)ccc1NC(=O)CC1SC(=Nc2ccccc2Cl)NC1=O (stereo unspecified) | – | > 100 | – |
| CN(Cc1cc(C(C)(C)C)cc(Br)c1O)Cc1cc(C(C)(C)C)cc(Br)c1O | 15.9 µM | – | – |
| Cc1cccc(C)c1NC(=O)C(=O)Nn1c(NN)nc2ccccc2c1=O | – | > 100 | – |
| Cn1cc2ccccc2c1-c1nc(F)nc(OCC(=O)[C@H]2CCC3[C@@H]4CCC5=CC(=O)CC[C@]5(C)C4[C@@H](O)C[C@@]32C)n1 (stereo partly specified) | – | 6.82 | – |
| C=C(c1ccccc1)[C@@]1(O)CC[C@@H]1N(CC#N)Cc1ccccc1 | 40 µM | – | – |
| COc1cc2c(cc1OC)C13CCN4CC5CCOC6CC(=O)N2C1C6C5CC43 (stereo unspecified) | > 100 µM | – | – |
| CC(=O)OCC1OC(n2c(-c3ccc(C)cc3)cc(-c3ccccc3)c(C#N)c2=O)C(OC(C)=O)C(OC(C)=O)C1OC(C)=O (stereo unspecified) | – | > 100 | – |
| CN(C)CCNC(=O)c1ccc(NC(=O)c2nc([N+](=O)[O-])cn2C)cc1 | > 100 µM | – | – |
| S=P(N1CC1)(N1CC1)N1CC1 | 426 µM and 671 µM | – | TGI [3]: 328 µM; GI50 [1]: 257 µM; TGI [4]: 351 µM; TGI [5]: 373 µM |
| COC(C)(C)C/C=C/C(C)=C/C=C/C(C)=C\C=C\C(C)=C\C=C\C=C(C)\C=C\C=C(C)\C=C\C=C(C)\C=C\CC(C)(C)OC | – | – | outcome [2]: inactive |
| NCCCNCCCCNC(=O)C(O)NC(=O)CCCCCCN=C(N)N (stereo unspecified) | > 5000 µM | – | TGI [3]: 511 µM; GI50 [1]: > 750 µM; TGI [4]: 750 µM; TGI [5]: 750 µM |

| SMILES | TGI [1] | TGI [2] [µM] | also measured |
| --- | --- | --- | --- |
| NC(N)=NS(=O)(=O)c1ccc(NCCc2c3ccccc3nc3ccccc23)cc1 | – | > 100 | – |
| COc1cc2c(cc1OC)/C(=C\c1ccccc1N)C(=O)OC2 | – | 23.5 | – |
| CN(C)c1ccc(/C=c2\sc3nc4ccccc4n3c2=O)cc1 | – | > 100 | – |
| CN(C)CC/[N+]([O-])=C(/c1ccccc1)C12CC3CC(CC(C3)C1)C2 | – | 32.8 | – |
| CSc1nc(SC)c2c(CO)c(Br)n(Cc3ccccc3)c2n1 | > 100 µM | – | – |
| O=C1c2ccccc2S(=O)(=O)c2cc(-c3nn[nH]n3)ccc21 | > 100 µM | – | – |
| Cc1cc(C)c(-n2c(-c3ccc(Br)cc3)cs/c2=N\N=C2C=C(C(C)(C)C)C(=O)C(C(C)(C)C)=C2)c(C)c1 | > 100 µM | > 100 | – |
| Cc1cc2c(C)nn(Cc3ccc(Cl)cc3)c2c(C#N)c1C | – | > 100 | – |
| CCCCCCCc1cc2c3c(nc4ccccc42)C(=O)c2cccnc2-c3n1 | 9.12 µM | – | GI50 [1]: 4.44 µM |
| O=c1c2cc(Cl)ccc2sc2cccc(Cl)c12 | – | > 100 | – |
| CN1C(=O)C2C(C1=O)C1(O)c3ccccc3C2(N)c2ccccc21 (stereo unspecified) | – | > 100 | – |
| COc1ccc(C2ON(c3cccc(C)n3)CC=C2C)cc1 (stereo unspecified) | – | > 100 | – |
| CCCSS[C@H]1NC(=O)[C@H]1NC(=O)COc1ccccc1 | – | 31.6 | – |
| CCN(CC)c1ccc(N=Nc2ccc(-c3nc4ccc[n+](C)c4o3)cc2)cc1 | – | > 100 | – |
| O=C(O)CCc1nn2c(nc1=O)sc1ccc3ccccc3c12 | – | > 100 | – |
